Key:
morningglory = test: Test C pre-/postemergence herbicide test; type: in vivo, Ipomoea coccinea; conditions: Preemergence; for Plant response rating, Morningglory: 125 g ai/ha; for Plant response rating (scale of 0 to 100), Morningglory: 250 g ai/ha
How it was run: (§1)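 Greenhouse plants scored visually against untreated controls 13–15 days after treatment, 0 = no effect, 100 = complete control. Test chemicals in a non-phytotoxic solvent with surfactant were applied either to soil (loam/sand) at planting or to foliage of 1- to 4-leaf plants, 2–18 cm tall.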

blackgrass = test: Test C pre-/postemergence herbicide test; type: in vivo, Alopecurus myosuroides; conditions: Preemergence; for Plant response rating (scale of 0 to 100), Blackgrass: 250 g ai/ha
How it was run: as §1

galium = test: Test C pre-/postemergence herbicide test; type: in vivo, Galium aparine; conditions: Preemergence; for Plant response rating, Galium: 125 g ai/ha; for Plant response rating (scale of 0 to 100), Galium: 250 g ai/ha
How it was run: as §1

wheat (winter wheat) = test: Test C pre-/postemergence herbicide test; type: in vivo, Triticum aestivum; conditions: Preemergence; for Plant response rating (scale of 0 to 100), Wheat: 250 g ai/ha
How it was run: as §1

crabgrass, large = test: Test C pre-/postemergence herbicide test; type: in vivo, Digitaria sanguinalis; conditions: Preemergence; for Plant response rating, Crabgrass, Large: 125 g ai/ha; for Plant response rating (scale of 0 to 100), Crabgrass, Large: 250 g ai/ha
How it was run: as §1

waterhemp = test: Test C pre-/postemergence herbicide test; type: in vivo, Amaranthus rudis; conditions: Preemergence; for Plant response rating, Waterhemp: 125 g ai/ha; for Plant response rating (scale of 0 to 100), Waterhemp: 250 g ai/ha
How it was run: as §1

johnsongrass = test: Test C pre-/postemergence herbicide test; type: in vivo, Sorghum halepense; conditions: Preemergence; for Plant response rating, Johnsongrass: 125 g ai/ha; for Plant response rating (scale of 0 to 100), Johnsongrass: 250 g ai/ha
How it was run: as §1

sedge, umbrella = test: Test B flooded paddy test; type: in vivo, Cyperus difformis; conditions: 1000 g ai/ha, Flood; scale of 0 to 100 where 0 is no effect and 100 is complete control
How it was run: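 In-water application to pots flooded 3 cm deep, plants at 2-leaf stage. Held in greenhouse 13–15 days at constant flood depth. Scored 0–100 by eye against controls.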

lambsquarters = test: Test C pre-/postemergence herbicide test; type: in vivo, Chenopodium album; conditions: Preemergence; for Plant response rating, Lambsquarters: 125 g ai/ha; for Plant response rating (scale of 0 to 100), Lambsquarters: 250 g ai/ha
How it was run: as §1

pigweed = test: Test C pre-/postemergence herbicide test; type: in vivo, Amaranthus retroflexus; conditions: Preemergence; for Plant response rating, Pigweed: 125 g ai/ha; for Plant response rating (scale of 0 to 100), Pigweed: 250 g ai/ha
How it was run: as §1

wheat = test: Test A pre-/postemergence herbicide test; type: in vivo, Triticum aestivum
How it was run: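 Visual 0–100 ratings (100 = complete control) made about 10 days after treatment, greenhouse-held plants compared with untreated controls. Treatments: postemergence sprays on one- to two-leaf plants (2–10 cm tall) and preemergence directed soil sprays after planting in loam–sand, chemicals formulated in non-phytotoxic solvent containing surfactant.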

[1] = 31 g ai/ha, scale 0 to 100, 0 is no effect and 100 is complete control
[2] = 62 g ai/ha, scale 0 to 100 (0 no effect, 100 complete control)
[3] = scale 0 to 100 (0 no effect, 100 complete control)
[4] = 125 g ai/ha, scale 0 to 100 (0 no effect, 100 complete control)
[5] = Postemergence, 125 g ai/ha, 0 to 100 scale, 0 is no effect, 100 is complete control
[6] = Postemergence, 500 g ai/ha, 0 to 100 scale (0 no effect, 100 complete control)
[7] = Preemergence, 125 g ai/ha, 0 to 100 scale where 0 is no effect and 100 is complete control
[8] = preemergence, 500 g ai/ha, 0 to 100 scale, 0 is no effect and 100 is complete control

| Structure (SMILES) | Morningglory plant response rating (morningglory; [1]) | Morningglory plant response rating (morningglory; [2]) | Plant response rating, Morningglory (morningglory; [3]) | Plant response rating (scale of 0 to 100), Morningglory (morningglory) | Blackgrass plant response rating (blackgrass; [1]) | Plant response rating, Blackgrass (blackgrass; [4]) | Plant response rating (scale of 0 to 100), Blackgrass (blackgrass) | Galium plant response rating (galium; [1]) | Galium plant response rating (galium; [2]) | Plant response rating, Galium (galium; [3]) | Plant response rating (scale of 0 to 100), Galium (galium) | Wheat plant response rating (wheat (winter wheat); [1]) | Wheat plant response rating (wheat (winter wheat); [2]) | Plant response rating (scale of 0 to 100), Wheat (wheat (winter wheat)) | Crabgrass, Large plant response rating (crabgrass, large; [1]) | Crabgrass, Large plant response rating (crabgrass, large; [2]) | Plant response rating, Crabgrass, Large (crabgrass, large; [3]) | Plant response rating (scale of 0 to 100), Crabgrass, Large (crabgrass, large) | Waterhemp plant response rating (waterhemp; [1]) | Waterhemp plant response rating (waterhemp; [2]) | further results |
| --- | --- | --- | --- | --- | --- | --- | --- | --- | --- | --- | --- | --- | --- | --- | --- | --- | --- | --- | --- | --- | --- |
| O=C1NCC(c2ccc(C(F)(F)F)c(F)c2)C1C(=O)Nc1ccccc1F (racemic) [Compound 246] | 5 | 5 | 10 | 5 | 0 | 5 | 70 | 10 | 90 | 90 | 90 | 0 | 0 | 30 | 95 | 95 | 95 | 98 | 100 | 98 | Plant response rating, Blackgrass (blackgrass; 62 g ai/ha, scale 0 to 100): 0; Plant response rating, Wheat (wheat (winter wheat); [4]): 10; Plant response rating, Waterhemp (waterhemp; [3]): 90; Plant response rating (scale of 0 to 100), Waterhemp (waterhemp): 90; Johnsongrass plant response rating (johnsongrass; [1]): 0; Johnsongrass plant response rating (johnsongrass; [2]): 20; Plant response rating, Johnsongrass (johnsongrass; [3]): 0; Plant response rating (scale of 0 to 100), Johnsongrass (johnsongrass): 5; Plant response rating, Sedge, Umbrella (sedge, umbrella): 20; Lambsquarters plant response rating (lambsquarters; [1]): 65; Lambsquarters plant response rating (lambsquarters; [2]): 65; Plant response rating, Lambsquarters (lambsquarters; [3]): 80; Plant response rating (scale of 0 to 100), Lambsquarters (lambsquarters): 90; Pigweed plant response rating (pigweed; [1]): 30; Pigweed plant response rating (pigweed; [2]): 75; Plant response rating, Pigweed (pigweed; [3]): 75; Plant response rating (scale of 0 to 100), Pigweed (pigweed): 100; Plant response rating, Wheat (wheat; [5]): 0; Plant response rating, Wheat (wheat; [6]): 30; Plant response rating, Wheat (wheat; [7]): 0 |
| O=C1NCC(c2ccc(C(F)(F)F)c(F)c2)C1C(=O)Nc1cccc(F)c1F (racemic) [Compound 247] | 0 | 0 | 5 | 20 | 0 | 60 | 70 | 90 | 90 | 90 | 90 | 0 | 0 | 0 | 95 | 95 | 98 | 100 | 70 | 100 | Blackgrass plant response rating (blackgrass; [2]): 50; Plant response rating, Waterhemp (waterhemp; [3]): 100; Plant response rating (scale of 0 to 100), Waterhemp (waterhemp): 85; Johnsongrass plant response rating (johnsongrass; [1]): 0; Johnsongrass plant response rating (johnsongrass; [2]): 0; Plant response rating, Johnsongrass (johnsongrass; [3]): 10; Plant response rating (scale of 0 to 100), Johnsongrass (johnsongrass): 5; Plant response rating, Sedge, Umbrella (sedge, umbrella): 0; Lambsquarters plant response rating (lambsquarters; [1]): 0; Lambsquarters plant response rating (lambsquarters; [2]): 90; Plant response rating, Lambsquarters (lambsquarters; [3]): 70; Plant response rating (scale of 0 to 100), Lambsquarters (lambsquarters): 80; Pigweed plant response rating (pigweed; [1]): 0; Pigweed plant response rating (pigweed; [2]): 55; Plant response rating, Pigweed (pigweed; [3]): 85; Plant response rating (scale of 0 to 100), Pigweed (pigweed): 90; Plant response rating, Wheat (wheat; [5]): 0; Plant response rating, Wheat (wheat; [6]): 30; Plant response rating, Wheat (wheat; [7]): 0; Plant response rating, Wheat (wheat; [8]): 0 |
| O=C1NCC(c2ccc(C(F)(F)F)nc2)C1C(=O)Nc1ccccc1F (racemic) [Compound 262] | 0 | 0 | 10 | 10 | 0 | 0 | 0 | 0 | 40 | 60 | 85 | 0 | 0 | 0 | 95 | 98 | 100 | 100 | 0 | 50 | Blackgrass plant response rating (blackgrass; [2]): 0; Plant response rating, Waterhemp (waterhemp; [3]): 60; Plant response rating (scale of 0 to 100), Waterhemp (waterhemp): 50; Johnsongrass plant response rating (johnsongrass; [1]): 0; Johnsongrass plant response rating (johnsongrass; [2]): 0; Plant response rating, Johnsongrass (johnsongrass; [3]): 0; Plant response rating (scale of 0 to 100), Johnsongrass (johnsongrass): 0; Plant response rating, Sedge, Umbrella (sedge, umbrella): 0; Lambsquarters plant response rating (lambsquarters; [1]): 100; Lambsquarters plant response rating (lambsquarters; [2]): 70; Plant response rating, Lambsquarters (lambsquarters; [3]): 80; Plant response rating (scale of 0 to 100), Lambsquarters (lambsquarters): 100; Pigweed plant response rating (pigweed; [1]): 0; Pigweed plant response rating (pigweed; [2]): 0; Plant response rating, Pigweed (pigweed; [3]): 0; Plant response rating (scale of 0 to 100), Pigweed (pigweed): 5; Plant response rating, Wheat (wheat; [5]): 0; Plant response rating, Wheat (wheat; [6]): 0; Plant response rating, Wheat (wheat; [7]): 0; Plant response rating, Wheat (wheat; [8]): 0 |
| O=C1NCC(c2ccc(C(F)(F)F)nc2)C1C(=O)Nc1cccc(F)c1F (racemic) [Compound 263] | 0 | 0 | 20 | 10 | 0 | 40 | 70 | 70 | 85 | 85 | 90 | 0 | 10 | 50 | 100 | 100 | 100 | 100 | 75 | 80 | Blackgrass plant response rating (blackgrass; [2]): 0; Plant response rating, Waterhemp (waterhemp; [3]): 90; Plant response rating (scale of 0 to 100), Waterhemp (waterhemp): 100; Johnsongrass plant response rating (johnsongrass; [1]): 5; Johnsongrass plant response rating (johnsongrass; [2]): 0; Plant response rating, Johnsongrass (johnsongrass; [3]): 0; Plant response rating (scale of 0 to 100), Johnsongrass (johnsongrass): 0; Plant response rating, Sedge, Umbrella (sedge, umbrella): 0; Lambsquarters plant response rating (lambsquarters; [1]): 50; Lambsquarters plant response rating (lambsquarters; [2]): 100; Plant response rating, Lambsquarters (lambsquarters; [3]): 70; Plant response rating (scale of 0 to 100), Lambsquarters (lambsquarters): 80; Pigweed plant response rating (pigweed; [1]): 70; Pigweed plant response rating (pigweed; [2]): 70; Plant response rating, Pigweed (pigweed; [3]): 98; Plant response rating (scale of 0 to 100), Pigweed (pigweed): 95; Plant response rating, Wheat (wheat; [6]): 60; Plant response rating, Wheat (wheat; [7]): 0; Plant response rating, Wheat (wheat; [8]): 60 |

From US10294202B2, “Pyrrolidinones as herbicides” (FMC Corporation, priority 2013, dated 2019)
